According to PubChem BioAssay AID2060361 (Molecular Pharmacology Branch, DTP, NCI, 2025):
pIC50: −log10 of the molar value. Where “and” joins values, the source holds several entries; their conditions need not be identical. Identical values can stand only once.

Test system: 463943-066-T-J2-PDC tumor spheroids with HUVEC/MSC, viability
Assay: Anticancer human tumor 463943-066-T-J2-PDC patient-derived colon adenocarcinoma cell line growth inhibition [TAK]
Details: for viability, T/C: stronger effect = lower value
Source text: Combinatorial screen of targeted agents with TAK-243 and ipatasertib in multi-cell type tumor spheroids
A high-throughput screen of multi-cell type tumor spheroids was designed to identify active combinations of targeted small molecules and TAK-243 or ipatasertib. Complex spheroids include a stromal component modeled by human endothelial cells (HUVEC) and fibroblasts modeled by human mesenchymal stem cells (MSCs). The concentration ranges selected for each drug and investigational agent were based upon clinically achievable concentrations if the clinical Cmax of the agent was known.
Compounds. The drugs and investigational agents: TAK-243 (785004), ipatasertib (767898), everolimus (733504), selumetinib (741078), bortezomib (756655), trametinib (758246), ixazomib (758254), vemurafenib (761431), dabrafenib (764134), sapanisertib (764658), alpelisib (765974), and copanlisib (816437), were obtained from the National Cancer Institute (NCI) Developmental Therapeutics Program Chemical Repository. The FDA-approved anticancer drug set is available from the NCI Developmental Therapeutics Program. […] The stock solutions were prepared in dimethyl sulfoxide (DMSO, Sigma-Aldrich, St. Louis, MO, cat. D2650) at 800-fold the tested concentration and stored at -70 degrees C prior to their use. All drugs and investigational agents were tested over a range starting from a high concentration at or near the clinical Cmax and decreasing in half-log increments. If the clinical Cmax for an agent had not been determined, the highest concentration tested was 10 microM.
NCI60 Cell Culture. NCI60 cell lines were obtained from the NCI Developmental Therapeutics Program Tumor Repository. For each lot of cells, the Repository performed Applied Biosystems AmpFLSTR Identifiler testing with PCR amplification to confirm consistency with the published Identifier STR profile for each cell line. Cells were kept in continuous culture for no more than 20 passages. The optimal seeding densities for each of the cell lines at each time point assessed were determined prior to performing the concentration response studies. Briefly, the NCI60 human tumor lines were grown as monolayers in RPMI 1640 medium supplemented with 10% FBS and 2 mmol/L L-glutamine.
An additional 2 lines were from the NCI60 cell line panel including melanomas, MALME-3M and SK-MEL-2. Pooled donor human umbilical vein endothelial cells (HUVEC, Lonza, cat. CC-2519) and human mesenchymal stem cells (hMSC, Lonza, cat. PT-2501) were purchased from Lonza (Walkersville, MD).
PDMR cell lines were grown in complete medium (DC medium): Dulbecco's modified Eagle's medium (DMEM)/F12 supplemented with 5% fetal bovine serum (FBS), 2 mM L-glutamine, 100 U/mL penicillin and 100 µg/ml streptomycin, 0.4 µg/ml hydrocortisone, 10 ng/ml epidermal growth factor (EGF) recombinant human protein, 24 µg/mL adenine, and 0.1 mg/mL primocin. During culture from frozen stock vials, PDMR cells were cultured in the same medium containing 10 µM Y-27632 (see Table 3). The PDCs were cultured in complete DMEM/F12 media without 10 microM Y-27632 dihydrochloride for at least two passages prior to the screen. The pooled donor HUVEC and hMSC were cultured in endothelial cell growth medium 2 (PromoCell, Heidelberg, Germany, cat. C-22011) and mesenchymal stem cell growth medium 2 (PromoCell, cat. C-28009), respectively. For all experiments, HUVEC and hMSC were used at passages </=5.
For the pre-screen, cell seeding densities were determined from a titration spanning the range from 5,000 to 313 cells per well. The mct-spheroids including 60% malignant cells, 25% HUVEC and 15% MSC dispensed as a mixture into U-bottom Ultra-Low Attachment 384-well plates (Corning, NY)
High-throughput Drug Combination Screening.
Prior to their inoculation into 384-well plates, malignant cells, HUVEC, and hMSC were removed from T flasks using TrypLE express (Thermo Fisher Scientific, cat. 12605036) and harvested by centrifugation for 5 min at 233 x g. […]
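Also: spheroids exposed to drugs for seven days.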
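For viability, T/C in this document: 100% = DMSO vehicle control wells.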

## CC(=O)Nc1cccc(-n2c(=O)n(C3CC3)c(=O)c3c(Nc4ccc(I)cc4F)n(C)c(=O)c(C)c32)c1
Compound 94.9 pM
  viability, T/C: 104% and 102%
Compound 0.0003 µM
  viability, T/C: 93.3% and 98.1%
Compound 0.000949 µM
  viability, T/C: 89.2% and 86.9%
Compound 0.003 µM
  viability, T/C: 86.5% and 68.9%
Compound 0.00949 µM
  viability, T/C: 81.9% and 67.4%
Compound 0.03 µM
  viability, T/C: 67.2% and 59.4%
Curve of compound
  pIC50: < 7.52

## CC(C)(C)c1nc(-c2cccc(NS(=O)(=O)c3c(F)cccc3F)c2F)c(-c2ccnc(N)n2)s1
Compound 0.0316 µM
  viability, T/C: 116% and 108%
Compound 0.1 µM
  viability, T/C: 110% and 108%
Compound 0.316 µM
  viability, T/C: 113% and 103%
Compound 1 µM
  viability, T/C: 112% and 109%
Compound 3.16 µM
  viability, T/C: 109% and 116%
Compound 10 µM
  viability, T/C: 104% and 107%
Curve of compound
  pIC50: < 5.00

## CC(C)CC(NC(=O)C(Cc1ccccc1)NC(=O)c1cnccn1)B(O)O (stereo not drawn)
Compound 31.6 pM
  viability, T/C: 106% and 127%
Compound 0.0001 µM
  viability, T/C: 109% and 112%
Compound 0.000316 µM
  viability, T/C: 97.4% and 97.8%
Compound 0.001 µM
  viability, T/C: 87.7% and 98.7%
Compound 0.00316 µM
  viability, T/C: 90.2% and 85.5%
Compound 0.01 µM
  viability, T/C: 70.7% and 80.7%
Curve of compound
  pIC50: < 8.00

## CC(C)CC(NC(=O)CNC(=O)c1cc(Cl)ccc1Cl)B1OC(=O)CC(CC(=O)O)(C(=O)O)O1 (stereo not drawn)
Compound 0.000316 µM
  viability, T/C: 109% and 95.1%
Compound 0.001 µM
  viability, T/C: 108% and 96.2%
Compound 0.00316 µM
  viability, T/C: 122% and 97.5%
Compound 0.01 µM
  viability, T/C: 100% and 95.3%
Compound 0.0316 µM
  viability, T/C: 82.2% and 73.6%
Compound 0.1 µM
  viability, T/C: 81.4% and 74.8%
Curve of compound
  pIC50: < 7.00

## CC(C)NCC(C(=O)N1CCN(c2ncnc3c2C(C)CC3O)CC1)c1ccc(Cl)cc1 (stereo not drawn)
Compound 0.3 µM
  viability, T/C: 94.2% [middle of 10 runs]
Compound 3 µM
  viability, T/C: 86.9% [middle of 10 runs]
Compound alone, run of 02/28/2020
  pIC50: < 4.52

## CC(C)n1nc(-c2ccc3oc(N)nc3c2)c2c(N)ncnc21
Compound 0.000316 µM
  viability, T/C: 115% and 102%
Compound 0.001 µM
  viability, T/C: 103%
Compound 0.00316 µM
  viability, T/C: 93.7% and 84.9%
Compound 0.01 µM
  viability, T/C: 75.8% and 92.2%
Compound 0.0316 µM
  viability, T/C: 83.8% and 77.3%
Compound 0.1 µM
  viability, T/C: 82.8% and 76.9%
Curve of compound
  pIC50: < 7.00

## CCCS(=O)(=O)Nc1ccc(F)c(C(=O)c2c[nH]c3ncc(-c4ccc(Cl)cc4)cc23)c1F
Compound 0.316 µM
  viability, T/C: 108% and 97.6%
Compound 1 µM
  viability, T/C: 107% and 112%
Compound 3.16 µM
  viability, T/C: 109% and 126%
Compound 10 µM
  viability, T/C: 95.6% and 103%
Compound 31.6 µM
  viability, T/C: 122% and 118%
Compound 100 µM
  viability, T/C: 122% and 124%
Curve of compound
  pIC50: < 4.00

## COC1CC2CCC(C)C(O)(O2)C(=O)C(=O)N2CCCCC2C(=O)OC(C(C)CC2CCC(OCCO)C(OC)C2)CC(=O)C(C)C=C(C)C(O)C(OC)C(=O)C(C)CC(C)C=CC=CC=C1C (stereo not drawn)
Compound 0.000316 µM
  viability, T/C: 101% and 107%
Compound 0.001 µM
  viability, T/C: 91% and 91.9%
Compound 0.00316 µM
  viability, T/C: 87.1% and 85.7%
Compound 0.01 µM
  viability, T/C: 83.7% and 89.1%
Compound 0.0316 µM
  viability, T/C: 85.6% and 91.5%
Compound 0.1 µM
  viability, T/C: 76.8% and 86%
Curve of compound
  pIC50: < 7.00

## COc1c(OCCCN2CCOCC2)ccc2c3n(c(=NC(=O)c4cnc(N)nc4)nc12)CCN3
Compound 0.00316 µM
  viability, T/C: 93.7% and 101%
Compound 0.01 µM
  viability, T/C: 88.3% and 90.3%
Compound 0.0316 µM
  viability, T/C: 84.4% and 86.9%
Compound 0.1 µM
  viability, T/C: 80.3% and 85%
Compound 0.316 µM
  viability, T/C: 77.4% and 77.2%
Compound 1 µM
  viability, T/C: 68.1% and 72.1%
Curve of compound
  pIC50: < 6.00

## Cc1nc(NC(=O)N2CCCC2C(N)=O)sc1-c1ccnc(C(C)(C)C(F)(F)F)c1 (stereo not drawn)
Compound 0.0316 µM
  viability, T/C: 96.2% and 102%
Compound 0.1 µM
  viability, T/C: 103% and 91.1%
Compound 0.316 µM
  viability, T/C: 87.7% and 90.1%
Compound 1 µM
  viability, T/C: 78.6% and 84.6%
Compound 3.16 µM
  viability, T/C: 81.1% and 78.6%
Compound 10 µM
  viability, T/C: 78.6% and 73.7%
Curve of compound
  pIC50: < 5.00

## Cn1cnc2c(F)c(Nc3ccc(Br)cc3Cl)c(C(=O)NOCCO)cc21
Compound 0.00949 µM
  viability, T/C: 101% and 106%
Compound 0.03 µM
  viability, T/C: 99.1% and 108%
Compound 0.0949 µM
  viability, T/C: 77.1% and 84%
Compound 0.3 µM
  viability, T/C: 85.9% and 76%
Compound 0.949 µM
  viability, T/C: 64.1% and 78.2%
Compound 3 µM
  viability, T/C: 62.4% and 57.4%
Curve of compound
  pIC50: < 5.52

## COC1CC2CCC(C)C(O)(O2)C(=O)C(=O)N2CCCCC2C(=O)OC(C(C)CC2CCC(OCCO)C(OC)C2)CC(=O)C(C)C=C(C)C(O)C(OC)C(=O)C(C)CC(C)C=CC=CC=C1C (stereo not drawn) + CC(C)NCC(C(=O)N1CCN(c2ncnc3c2C(C)CC3O)CC1)c1ccc(Cl)cc1
Curve of first compound, second compound 0.3 µM
  pIC50: < 7.00
Curve of first compound, second compound 0.949 µM
  pIC50: < 7.00
Curve of first compound, second compound 3 µM
  pIC50: < 7.00
Curve of first compound, second compound 9.49 µM
  pIC50: < 7.00
Curve of first compound, second compound 30 µM
  pIC50: < 7.00
Second compound 0.3 µM, first compound 0.000316 µM
  viability, T/C: 91.7%
Second compound 0.3 µM, first compound 0.001 µM
  viability, T/C: 86.2%
Second compound 0.3 µM, first compound 0.00316 µM
  viability, T/C: 90.4%
Second compound 0.3 µM, first compound 0.01 µM
  viability, T/C: 74.8%
Second compound 0.3 µM, first compound 0.0316 µM
  viability, T/C: 86.5%
Second compound 0.3 µM, first compound 0.1 µM
  viability, T/C: 77.3%
Second compound 0.949 µM, first compound 0.000316 µM
  viability, T/C: 85.5%
Second compound 0.949 µM, first compound 0.001 µM
  viability, T/C: 90.9%
Second compound 0.949 µM, first compound 0.00316 µM
  viability, T/C: 83.2%
Second compound 0.949 µM, first compound 0.01 µM
  viability, T/C: 76.4%
Second compound 0.949 µM, first compound 0.0316 µM
  viability, T/C: 78.8%
Second compound 0.949 µM, first compound 0.1 µM
  viability, T/C: 80.7%
Second compound 3 µM, first compound 0.000316 µM
  viability, T/C: 86%
Second compound 3 µM, first compound 0.001 µM
  viability, T/C: 91.3%
Second compound 3 µM, first compound 0.00316 µM
  viability, T/C: 81.4%
Second compound 3 µM, first compound 0.01 µM
  viability, T/C: 80.3%
Second compound 3 µM, first compound 0.0316 µM
  viability, T/C: 78.2%
Second compound 3 µM, first compound 0.1 µM
  viability, T/C: 78.3%
Second compound 9.49 µM, first compound 0.000316 µM
  viability, T/C: 84.8%
Second compound 9.49 µM, first compound 0.001 µM
  viability, T/C: 76.7%
Second compound 9.49 µM, first compound 0.00316 µM
  viability, T/C: 81.5%
Second compound 9.49 µM, first compound 0.01 µM
  viability, T/C: 76.6%
Second compound 9.49 µM, first compound 0.0316 µM
  viability, T/C: 80%
Second compound 9.49 µM, first compound 0.1 µM
  viability, T/C: 78.6%
Second compound 30 µM, first compound 0.000316 µM
  viability, T/C: 85.8%
Second compound 30 µM, first compound 0.001 µM
  viability, T/C: 79.9%
Second compound 30 µM, first compound 0.00316 µM
  viability, T/C: 82.8%
Second compound 30 µM, first compound 0.01 µM
  viability, T/C: 78.8%
Second compound 30 µM, first compound 0.0316 µM
  viability, T/C: 73.1%
Second compound 30 µM, first compound 0.1 µM
  viability, T/C: 80.8%
